What was measured:
C2C12 cells = assay: Cellular oxygen consumption rate (uncoupled respiration), C2C12 cells; assay type: cell-based, mouse; conditions: 50 μM, after oligomycin 1 μM
Procedure: (§1) C2C12, U2O5, and 293A cells were cultured in DMEM with 10% FBS and pen/strep. Primary inguinal (iWAT) and brown (BAT) adipocytes were obtained as follows. The stromal-vascular fraction of inguinal (iWAT) pad from 4-12 week old male mice was dissected, minced, and digested for 45 min. at 37° C. in PBS containing 10 mM CaCl2, 2.4 U/ml dispase II (Roche), and 1.5 U/ml collagenase D (Roche). The stromal-vascular fraction of brown fat (BAT) pads from newborn (P1-P14) pups was dissected, minced, and digested for 45 min at 37° C. in PBS containing 1.3 mM CaCl2, 120 mM NaCl, 5 mM KCl, 5 mM glucose, 100 mM HEPES, 4% BSA, and 1.5 mg/ml collagenase B (Roche). Digested tissue was diluted with adipocyte culture media (DMEM/F-12, GlutaMAX™ supplement, Life Technologies, with 10% FBS and pen/strep) and centrifuged (600×g for 10 min.). The pellet was resuspended in 10 ml adipocyte culture media, strained through a 40 μm filter, and plated. Differentiation was induced by application of an adipogenic cocktail containing 5 μg/ml insulin (Sigma), 5 μM dexamethasone (Sigma), 250 μM isobutylmethylxanthine (Sigma), and 1 μM rosiglitazone (Cayman) for 2 days. Two days after induction, cells were maintained in adipocyte culture media containing 5 μg/ml insulin and 1 μM rosiglitazone.
(§2) Cellular oxygen consumption rates were determined using an XF24 Extracellular Flux Analyzer (Seahorse Biosciences). Oligomycin was purchased from EMD Millipore, and FCCP and rotenone were purchased from Sigma. C2C12 or U2OS cells were seeded at 30,000 or 50,000 cells/well, respectively in an XF24 cell culture microplate (V7-PS, Seahorse Bioscience) and analyzed the following day. Primary iWAT or BAT adipocytes were seeded at 15,000 cells/well, differentiation was induced the following day as described, and the cells were analyzed on day 5. On the day of analysis, the cells were washed once with Seahorse respiration buffer (8.3 g/1 DMEM, 1.8 g/l NaCl, 1 mM pyruvate, 20 mM glucose, pen/strep), placed in 0.5 ml Seahorse respiration buffer, and incubated in a CO2-free incubator for 1 hr. Port injection solutions were prepared as follows (final concentrations in assay in parentheses): 10 μM oligomycin (1 μM final), […] amino acid (50 μM final), 2 μM FCCP (0.2 μM final), and 30 μM rotenone (3 μM final). The Seahorse program was run as follows: basal measurement, 3 cycles; inject port A (oligomycin), 3 cycles; inject port B (compounds), 8 cycles; inject port C (FCCP), 3 cycles; inject port D (rotenone), 3 cycles. Each cycle consisted of mix 4 min, wait 0 min, and measure 2 min. For data expressed as a percentage of oligomycin-treated basal, the respiration at cycle 6 was normalized to 100%, and the maximum respiration at any time point between cycles 7 and 15 inclusive was used.

proteins in C2C12 cells = assay: UV crosslinking with photo-probe and identification of N-acyl amino acid protein targets (TAMRA in-gel fluorescence, LC-MS/MS); assay type: binding, mouse; conditions: photo-probe 50 μM, 20 min, UV irradiation 10 min
Procedure: Confluent 6-cm plates of C2C12 cells were washed twice with PBS and then treated with photo-probe (20 μM) with or without competitor (C20:4-Phe, 100 μM) in serum free media at 37° C. for 20 min. The media was aspirated. Cells were then placed on ice and UV-irradiated (10 min, UV Stratalinker 2400). Control samples were left on ice under ambient light.
Following UV irradiation, cells were then scraped, centrifuged (5 min, 1,400×g), washed once with cold PBS, and centrifuged again (5 min, 1,400×g). The cell pellets were resuspended in 0.3 ml PBS and sonicated. Click chemistry was performed as follows: To 50 μl cell lysate at 1 mg/ml was added 3 μl TBTA (stock solution: 1.7 mM in 4:1 v/v DMSO:t-BuOH), 1 ul CuSO4 (stock solution: 50 mM in water), 1 ul TCEP (freshly prepared, stock solution: 50 mM), and 1 ul TAMRA-N3 (stock solution: 1.25 mM in DMSO). Reactions were incubated at room temperature for 1 h, and then quenched with 4× SDS loading buffer (17 ul). In-gel TAMRA fluorescence was visualized on a Typhoon™ FLA 9000 scanner (GE Healthcare Life Sciences).

[1] = system: primary inguinal fat cells, primary BAT cells, C2C12 cells, and U2OS cells; assay: Uncoupled respiration cellular assays (variety of cell types); assay type: cell-based; conditions: N-acyl amino acids at 10-100 uM
[2] = system: primary BAT adipocytes from UCP1-WT mice; assay: Cellular oxygen consumption rate, primary BAT adipocytes from UCP1-WT mice; assay type: cell-based, mouse; conditions: UCP1-WT cells, 50 μM
Procedure: (§3) C2C12, U2O5, and 293A cells were cultured in DMEM with 10% FBS and pen/strep. Primary inguinal (iWAT) and brown (BAT) adipocytes were obtained as follows. The stromal-vascular fraction of inguinal (iWAT) pad from 4-12 week old male mice was dissected, minced, and digested for 45 min. at 37° C. in PBS containing 10 mM CaCl2, 2.4 U/ml dispase II (Roche), and 1.5 U/ml collagenase D (Roche). The stromal-vascular fraction of brown fat (BAT) pads from newborn (P1-P14) pups was dissected, minced, and digested for 45 min at 37° C. in PBS containing 1.3 mM CaCl2, 120 mM NaCl, 5 mM KCl, 5 mM glucose, 100 mM HEPES, 4% BSA, and 1.5 mg/ml collagenase B (Roche). […]
(§4) Cellular oxygen consumption rates were determined using an XF24 Extracellular Flux Analyzer (Seahorse Biosciences). […] C2C12 or U2OS cells were seeded at 30,000 or 50,000 cells/well, respectively in an XF24 cell culture microplate (V7-PS, Seahorse Bioscience) and analyzed the following day. Primary iWAT or BAT adipocytes were seeded at 15,000 cells/well, differentiation was induced the following day as described, and the cells were analyzed on day 5. […] For data expressed as a percentage of oligomycin-treated basal, the respiration at cycle 6 was normalized to 100%, and the maximum respiration at any time point between cycles 7 and 15 inclusive was used.

[3] = system: differentiated primary iWAT cells; assay: Cellular oxygen consumption rate (Seahorse XF24), differentiated primary iWAT adipocytes; assay type: cell-based, mouse; conditions: 50 μM, in presence of oligomycin (1 μM)
Procedure: as §1, §2

[4] = system: primary BAT adipocytes from UCP1-KO mice; assay: Cellular oxygen consumption rate, primary BAT adipocytes from UCP1-KO mice; assay type: cell-based, mouse; conditions: UCP1-KO cells, 50 μM
Procedure: as §3, §4

human PM20D1 [5] = molecular target: T1, human PM20D1 (Homo sapiens, UniProt Q6GTS8); assay: In vitro N-acyl amino acid hydrolase activity of human PM20D1; assay type: biochemical; conditions: purified human PM20D1-flag, substrate 100 μM
T1 construct: host or cells: 293A cells, transient transfection; purified from conditioned medium
T1 sequence (Q6GTS8 26-502): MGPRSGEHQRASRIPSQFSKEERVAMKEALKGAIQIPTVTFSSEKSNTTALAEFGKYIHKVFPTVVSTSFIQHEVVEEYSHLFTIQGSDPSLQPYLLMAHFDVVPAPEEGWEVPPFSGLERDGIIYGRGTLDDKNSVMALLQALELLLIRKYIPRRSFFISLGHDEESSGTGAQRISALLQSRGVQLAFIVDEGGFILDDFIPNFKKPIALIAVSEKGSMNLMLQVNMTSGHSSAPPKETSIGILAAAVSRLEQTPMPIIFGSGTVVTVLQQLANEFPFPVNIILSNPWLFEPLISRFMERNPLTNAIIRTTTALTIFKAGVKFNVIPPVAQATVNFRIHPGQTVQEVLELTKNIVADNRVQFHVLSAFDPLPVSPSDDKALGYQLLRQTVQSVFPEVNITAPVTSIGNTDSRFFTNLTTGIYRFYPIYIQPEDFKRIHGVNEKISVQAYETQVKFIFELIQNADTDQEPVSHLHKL
Procedure: (§5) The concentrated media was centrifuged to remove debris (600×g, 10 min, 4° C.) and the supernatant containing PM20D1-flag was decanted into a new tube. PM20D1-Flag was immunoaffinity purified overnight at 4° C. from the concentrated media using magnetic Flag-M2 beads (Sigma Aldrich). The beads were collected, washed three times in PBS, eluted with 3× Flag peptide ([…] in PBS, Sigma Aldrich), aliquoted, and stored at −80° C. For the purification of human PM20D1-flag, hPM20D1-flag plasmid (Origene) was transiently transfected into 293A cells. After two days, the media was changed, harvested 24 h later, concentrated, and purified exactly as described above.
(§6) In vitro PM20D1-catalyzed synthesis of N-acyl amino acids was measured by incubating purified PM20D1 protein with oleate (1.5 mM) and phenylalanine (0.1 mM) in PBS (to 100 μl final volume) at 37° C. for 1.5 hrs. In vitro PM20D1-catalyzed N-acyl amino acid hydrolysis was measured by incubating purified PM20D1 protein with the indicated N-acyl amino acid (0.1 mM) in PBS (to 100 μl final volume) at 37° C. for 1.5 hrs. Reactions were terminated by placing the vials at −80° C. and the products generated in vitro were analyzed by mass spectroscopy (MS).
(§7) Briefly, frozen serum (30 μl) for polar metabolomic analyses were extracted in 160 μl of 1:1 acetonitrile/methanol with inclusion of internal standard D3, ^15N-serine (1 nmol). […]

human PM20D1 [6] = molecular target: T1, human PM20D1; assay: In vitro N-acyl amino acid synthase activity of human PM20D1; assay type: biochemical; conditions: purified human PM20D1-flag, oleate 1.5 mM, head group 100 μM
Procedure: as §5, §6, §7

Molecule: C#CCCCCCCCCCCCCCCCC(=O)N[C@@H](CC1(C)N=N1)C(=O)O [photo-probe, (S)-3-(3-methyl-3H-diazirin-3-yl)-2-(octadec-17-ynamido)propanoic acid]
- uncoupling activity (uncoupled respiration) (C2C12 cells): competent inducer of uncoupled respiration
- crosslinking assessed by in-gel TAMRA fluorescence (proteins in C2C12 cells): robust, UV-dependent crosslinking

Molecule: CCCCC/C=C\C/C=C\C/C=C\C/C=C\CCCC(=O)N[C@@H](Cc1ccccc1)C(=O)O [C20:4-Phe, N-arachidonoyl phenylalanine]
- uncoupled respiration in cells [1]: increased uncoupled respiration
- maximal OCR versus the oligomycin-treated basal respiration [2]: 221%
- maximal OCR versus DMSO at the same time point [3]: 214%
- maximal OCR versus oligomycin-treated basal respiration [3]: 243%
- maximal OCR versus the oligomycin-treated basal respiration [4]: 214%

B1: Human PM20D1: purified, recombinant human PM20D1-flag from transiently transfected 293A cells (protein, UniProt Q6GTS8 26-502, looked up)
N-fatty-acyl-amino acid …: MGPRSGEHQRASRIPSQFSKEERVAMKEALKGAIQIPTVTFSSEKSNTTALAEFGKYIHKVFPTVVSTSFIQHEVVEEYSHLFTIQGSDPSLQPYLLMAHFDVVPAPEEGWEVPPFSGLERDGIIYGRGTLDDKNSVMALLQALELLLIRKYIPRRSFFISLGHDEESSGTGAQRISALLQSRGVQLAFIVDEGGFILDDFIPNFKKPIALIAVSEKGSMNLMLQVNMTSGHSSAPPKETSIGILAAAVSRLEQTPMPIIFGSGTVVTVLQQLANEFPFPVNIILSNPWLFEPLISRFMERNPLTNAIIRTTTALTIFKAGVKFNVIPPVAQATVNFRIHPGQTVQEVLELTKNIVADNRVQFHVLSAFDPLPVSPSDDKALGYQLLRQTVQSVFPEVNITAPVTSIGNTDSRFFTNLTTGIYRFYPIYIQPEDFKRIHGVNEKISVQAYETQVKFIFELIQNADTDQEPVSHLHKL
modifications: FLAG tag
notes: purified, recombinant human PM20D1-flag from transiently transfected 293A cells
- N-acyl amino acid hydrolase activity (human PM20D1 [5]): possessed N-acyl amino acid synthase and hydrolase activities
- N-acyl amino acid synthase activity (human PM20D1 [6]): possessed N-acyl amino acid synthase and hydrolase activities

Reference: patent US12194080B2, “Methods for identification, assessment, prevention, and treatment of metabolic disorders using PM20D1 and N-lipidated amino acids” (Dana-Farber Cancer Institute, Inc., priority 2015, dated 2025)
